Assays:
[1] = target: T1, human Cav2.2 (Homo sapiens, UniProt Q00975); assay: Calcium flux (FLIPR, Calcium 4 dye) in IMR32 cells endogenously expressing human Cav2.2; type: cell-based; settings: 60 minute pre-incubation, 2 μM nifedipine to block L-type channels, depolarized with 80 mM KCl, 5 mM CaCl2, average of n≥2 runs unless marked *
T1 construct: cells endogenously expressing human Cav2.2; endogenous in cells; host or cells: IMR32 cells
Procedure: Compounds were tested for effect on calcium flux in cells endogenously expressing human Cav2.2. Specifically, IMR32 cells endogenously expressing human Cav2.2 were assayed for Ca^2+ influx using a no-wash calcium indicator dye (Calcium 4 dye: Molecular Probes) and FLIPR technology (Lubin, M L; et al. Assay and Drug Development Technologies, 2006, 4(6), 689-694). The IMR32 cells were maintained in MEM media containing 10% (v/v) FBS, 1% (v/v) antibiotic/antimitotic, 1% (v/v) sodium pyruvate and 1% (v/v) MEM NEAA. Following dissociation in 0.05% (v/v) trypsin/EDTA, cells were seeded into black 1×96-well plates (Corning Cellbind) at a density of 1−1.2×10^5 cells/well and incubated in the maintenance media above for 48 hours at 37° C. Immediately prior to performing the assay the media was removed and cells were loaded for 1.5 hours with 1× Calcium 4 dye prepared in HBSS (137 mM NaCl, 5.4 mM KCl, 0.25 mM Na2HPO4, 0.44 mM KH2PO4, 1.3 mM CaCl2, 1 mM MgSO4, 4.2 mM NaHCO3) containing HEPES pH 7.4 at room temperature. After dye loading and a subsequent 60 minute pre-incubation with compounds (full log dilutions from 10 μM to 0.1 nM) in the presence of 1.3 mM CaCl2 and 2 μM nifedipine to block endogenous L-type channels, the external Ca^2+ concentration was increased to 5 mM CaCl2 and the cells concomitantly depolarized with 80 mM KCl to assay channel activity.
To determine the IC50 values, the percent inhibition of the compound at each concentration was determined relative to the activity in the absence of inhibitor, and data was fitted using non-linear regression sigmoidal dose response curve analysis with GraphPad Prism®. Unless otherwise indicated (*), the reported values are average values from at least two runs (i.e., n≧2).

[2] = tested on: Sprague Dawley rats (CCI neuropathic pain); assay: Chronic constriction injury (CCI) model of neuropathic pain, tactile allodynia by von Frey filaments; type: in vivo, rat; settings: male Sprague Dawley rats, 10 mg/kg orally in 10% dimethyl sulfoxide/polyethylene glycol, mechanical allodynia 60 minutes after administration, calculated from log g paw withdrawal threshold
Procedure: Test compounds can be evaluated for analgesic effect in an in vivo model of neuropathic pain. Specifically, animals were prepared for testing, by use of a surgical procedure that induces neuropathic pain in one paw. IACUC guidelines for rodent survival surgery were followed. All surgical procedures were conducted on a clean, uncluttered surgical station. The area was wiped with a 70% ethanol solution before and after use. All instruments were sterilized by either autoclave or chemical sterilant (such as 2% glutaraldehyde>10 hours). Surgeons wore sterile gloves (for the initial procedure), clean lab coat or scrubs, hairnet or cap, and a half-mask respirator (when not working under a hood). Surgeons thoroughly washed their hands prior to donning sterile gloves. Gloves were disinfected in-between animals by cleansing with povidone iodine, chlorhexidine or 70% alcohol for at least 30 seconds. If multiple surgeries were performed, the instruments were cleaned and sterilized between procedures with hot glass beads (>10 seconds). To prevent thermal or chemical burns, the instruments were cooled by rinsing in sterile saline before use.
Male, Sprague Dawley® rats, 175-200 g were used for surgeries. To minimize post-operative dehydration/maintain blood volume during the surgery, warmed sterile saline or Lactate Ringers solution at 10-15 mL/kg was administered subcutaneously immediately before or after surgery. This facilitates better renal function and presumably anesthesia product excretion post surgery. For all surgical procedures, anesthesia was induced with 4-5% isoflurane. Anesthesia was maintained during surgery with 1-3% isoflurane. Following induction, the surgical site was carefully shaved and the exposed area was aseptically prepared with povidone-iodine scrub solution and 70% ethanol 2-3 times.
Chronic constriction injury (CCI), a model of neuropathic pain, was produced by following the method of Bennett and Xie (Bennett, G., et al. Pain, 1988, 33, 87-107). After site sterilization and anesthetic procedures outline above were completed, a 1.5 cm incision is made at the mid-thigh level to expose the biceps femoris and gluteous superficialis (right side), which were then separated by blunt dissection. The common sciatic nerve was exposed, isolated, and loosely ligated by four 5-0 chromic gut ligatures with <1 mm spacing between each. The surgical site was closed in layers—muscle is closed with 6.0 absorbable sutures, and the skin closed with wound clips. Animals were allowed to recover on a warming plate and were returned to their home cages when fully ambulatory. Animals were not be used for testing until at least 10 days following surgery.
To measure mechanical sensitivity, tactile allodynia was measured using calibrated von Frey filaments (Stoelting, Wood Dale, Ill.) as described by Chaplan et al. (Chaplan S., et al. J of Neuroscience Methods 1994, 53, 55-63). Filament strengths used were: 0.4, 0.6, 1.0, 2, 4, 6, 8, and 15 g. Rats were placed into inverted individual plastic containers (20×12.5×20 cm) on top of a suspended wire mesh grid, and acclimated to the test chambers for at least 20 minutes. Filaments were applied perpendicular to the mid-plantar paw surface with enough force to cause slight buckling and held in place for 6-8 seconds. Positive responses included an abrupt withdrawal of the paw from the stimulus or flinching behavior immediately following removal of the stimulus. The maximum force applied was 15 g. The 50% paw withdrawal threshold (PWT) was calculated in grams (g) using the up-down method of Dixon (Dixon W. Ann Rev Pharmacol Toxicol 1980, 20, 441-462). […] All compounds were orally administered at 10 mg/kg in 10% dimethyl sulfoxide/polyethylene glycol at a volume of 2.0 mL/kg, and mechanical allodynia was determined 60 minutes following compound administration
The data are reported as log g values and the percentage of maximum possible effect (% MPE) is calculated using log g values with the Formula: […]

T1 sequence (Q00975 whole entry): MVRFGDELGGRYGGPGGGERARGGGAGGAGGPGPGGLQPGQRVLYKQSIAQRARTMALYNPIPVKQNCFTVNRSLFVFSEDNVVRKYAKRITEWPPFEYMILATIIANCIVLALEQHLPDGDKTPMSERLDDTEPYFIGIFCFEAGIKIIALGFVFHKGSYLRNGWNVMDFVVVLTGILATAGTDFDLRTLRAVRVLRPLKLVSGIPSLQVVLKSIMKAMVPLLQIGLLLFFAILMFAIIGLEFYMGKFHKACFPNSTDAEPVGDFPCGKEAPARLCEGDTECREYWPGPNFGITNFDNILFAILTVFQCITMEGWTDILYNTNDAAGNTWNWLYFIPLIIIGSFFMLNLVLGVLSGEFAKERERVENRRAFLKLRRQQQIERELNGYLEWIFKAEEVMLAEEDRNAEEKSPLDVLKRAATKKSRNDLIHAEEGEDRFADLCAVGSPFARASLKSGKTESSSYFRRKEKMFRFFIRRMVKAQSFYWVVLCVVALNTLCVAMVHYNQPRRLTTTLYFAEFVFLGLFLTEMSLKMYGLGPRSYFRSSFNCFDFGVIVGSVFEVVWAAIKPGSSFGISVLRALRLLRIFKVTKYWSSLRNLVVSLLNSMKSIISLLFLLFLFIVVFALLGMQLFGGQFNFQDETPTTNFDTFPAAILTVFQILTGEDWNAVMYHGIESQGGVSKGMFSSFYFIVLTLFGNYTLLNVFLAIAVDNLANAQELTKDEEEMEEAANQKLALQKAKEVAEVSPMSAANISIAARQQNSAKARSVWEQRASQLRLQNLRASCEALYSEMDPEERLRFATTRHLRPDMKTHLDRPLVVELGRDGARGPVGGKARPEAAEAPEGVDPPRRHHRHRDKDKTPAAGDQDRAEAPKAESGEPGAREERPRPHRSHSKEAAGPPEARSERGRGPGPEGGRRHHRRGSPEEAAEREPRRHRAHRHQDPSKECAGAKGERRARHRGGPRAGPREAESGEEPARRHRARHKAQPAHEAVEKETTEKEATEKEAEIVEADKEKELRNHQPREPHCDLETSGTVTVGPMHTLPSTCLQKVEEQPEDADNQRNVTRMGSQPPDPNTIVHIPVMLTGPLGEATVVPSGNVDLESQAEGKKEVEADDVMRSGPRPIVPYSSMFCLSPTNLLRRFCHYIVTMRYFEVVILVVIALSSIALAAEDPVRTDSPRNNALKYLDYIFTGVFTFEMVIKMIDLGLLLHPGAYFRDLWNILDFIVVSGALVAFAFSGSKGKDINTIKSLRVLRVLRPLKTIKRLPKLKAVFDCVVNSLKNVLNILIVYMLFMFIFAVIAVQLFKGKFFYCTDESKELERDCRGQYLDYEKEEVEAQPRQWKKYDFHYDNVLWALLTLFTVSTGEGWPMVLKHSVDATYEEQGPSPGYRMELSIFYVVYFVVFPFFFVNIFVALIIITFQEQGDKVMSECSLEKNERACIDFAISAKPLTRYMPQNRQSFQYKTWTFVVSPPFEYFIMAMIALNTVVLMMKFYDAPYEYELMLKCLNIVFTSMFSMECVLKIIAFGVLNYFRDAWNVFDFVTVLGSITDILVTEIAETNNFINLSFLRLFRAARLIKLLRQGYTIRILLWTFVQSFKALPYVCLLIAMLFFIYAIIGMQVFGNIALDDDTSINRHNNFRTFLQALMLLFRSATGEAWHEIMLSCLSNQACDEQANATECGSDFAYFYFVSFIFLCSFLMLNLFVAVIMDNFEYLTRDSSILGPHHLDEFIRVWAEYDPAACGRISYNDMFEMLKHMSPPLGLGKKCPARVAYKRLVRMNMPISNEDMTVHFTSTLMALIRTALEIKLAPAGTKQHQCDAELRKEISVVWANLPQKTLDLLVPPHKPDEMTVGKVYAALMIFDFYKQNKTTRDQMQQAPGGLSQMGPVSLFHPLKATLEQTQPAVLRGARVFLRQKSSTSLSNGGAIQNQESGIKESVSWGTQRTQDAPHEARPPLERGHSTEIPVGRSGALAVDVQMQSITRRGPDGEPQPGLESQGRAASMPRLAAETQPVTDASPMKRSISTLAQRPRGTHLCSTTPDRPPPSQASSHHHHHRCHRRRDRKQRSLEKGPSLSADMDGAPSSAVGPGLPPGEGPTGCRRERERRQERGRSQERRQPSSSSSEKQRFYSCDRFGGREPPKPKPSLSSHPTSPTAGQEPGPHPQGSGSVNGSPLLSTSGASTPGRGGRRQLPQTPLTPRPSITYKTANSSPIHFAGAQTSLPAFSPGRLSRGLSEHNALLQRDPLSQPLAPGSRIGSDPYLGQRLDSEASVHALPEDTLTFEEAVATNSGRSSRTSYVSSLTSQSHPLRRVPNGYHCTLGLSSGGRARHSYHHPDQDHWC
T1 sequence (P54284 whole entry partner): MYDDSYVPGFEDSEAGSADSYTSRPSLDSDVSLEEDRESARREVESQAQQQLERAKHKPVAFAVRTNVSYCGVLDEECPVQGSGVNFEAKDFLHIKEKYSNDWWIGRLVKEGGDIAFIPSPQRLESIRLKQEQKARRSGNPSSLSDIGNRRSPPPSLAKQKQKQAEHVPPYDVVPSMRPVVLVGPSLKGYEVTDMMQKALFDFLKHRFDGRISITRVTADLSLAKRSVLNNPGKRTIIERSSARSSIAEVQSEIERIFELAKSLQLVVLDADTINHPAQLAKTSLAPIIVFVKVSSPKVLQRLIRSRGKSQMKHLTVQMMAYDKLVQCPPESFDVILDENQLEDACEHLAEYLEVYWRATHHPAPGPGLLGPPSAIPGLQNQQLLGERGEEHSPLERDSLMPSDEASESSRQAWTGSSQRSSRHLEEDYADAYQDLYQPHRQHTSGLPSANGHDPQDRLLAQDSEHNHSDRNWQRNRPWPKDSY
T1 sequence (P54289 25-956 partner limits assumed): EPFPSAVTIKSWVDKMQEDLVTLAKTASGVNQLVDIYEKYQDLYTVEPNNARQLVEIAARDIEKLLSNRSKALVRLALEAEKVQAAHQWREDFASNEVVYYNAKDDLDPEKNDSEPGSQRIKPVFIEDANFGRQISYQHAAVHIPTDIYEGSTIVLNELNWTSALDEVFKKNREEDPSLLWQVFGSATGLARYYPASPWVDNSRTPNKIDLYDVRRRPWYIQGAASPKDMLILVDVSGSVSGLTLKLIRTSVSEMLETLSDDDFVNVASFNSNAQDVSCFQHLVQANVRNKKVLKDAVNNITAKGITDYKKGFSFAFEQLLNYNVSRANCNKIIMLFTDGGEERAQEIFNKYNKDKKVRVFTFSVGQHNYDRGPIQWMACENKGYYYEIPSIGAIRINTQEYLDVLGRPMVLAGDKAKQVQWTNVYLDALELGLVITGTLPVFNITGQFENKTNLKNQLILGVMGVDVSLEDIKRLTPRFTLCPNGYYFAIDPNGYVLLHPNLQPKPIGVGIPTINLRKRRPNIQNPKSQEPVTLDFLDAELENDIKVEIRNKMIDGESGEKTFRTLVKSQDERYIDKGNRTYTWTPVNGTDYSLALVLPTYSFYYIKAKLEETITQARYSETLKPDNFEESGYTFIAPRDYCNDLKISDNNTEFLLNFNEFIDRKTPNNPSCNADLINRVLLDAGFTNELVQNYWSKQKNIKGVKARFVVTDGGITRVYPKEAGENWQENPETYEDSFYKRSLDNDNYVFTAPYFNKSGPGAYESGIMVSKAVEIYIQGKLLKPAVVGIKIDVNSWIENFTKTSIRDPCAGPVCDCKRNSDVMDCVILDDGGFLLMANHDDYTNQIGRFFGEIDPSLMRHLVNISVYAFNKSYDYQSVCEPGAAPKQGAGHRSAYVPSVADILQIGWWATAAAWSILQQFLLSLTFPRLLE
T1 sequence (P54289 957-1103 partner limits assumed): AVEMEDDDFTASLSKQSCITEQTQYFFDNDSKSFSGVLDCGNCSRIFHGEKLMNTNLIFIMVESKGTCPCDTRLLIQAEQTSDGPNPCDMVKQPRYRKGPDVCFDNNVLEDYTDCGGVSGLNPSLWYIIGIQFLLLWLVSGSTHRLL

Row | Compound | IC50 [1] | % MPE [2]
1 | O=C1CCN(Cc2ccc(OC(F)(F)F)cc2)C[C@@H]2C[C@@H](Oc3cnc(C4CC4)cn3)CN12 [Example 44, (8R,9aS)-8-[(5-cyclopropylpyrazin-2-yl)oxy]-2-[4-(trifluoromethoxy)benzyl]octahydro-5H-pyrrolo[1,2-a][1,4]diazepin-5-one] | 1650 nM | 48%
2 | FC(F)(F)c1ccc(N2CCCN3C[C@H](Oc4cnc(C5CC5)cn4)C[C@H]3C2)nc1 [Example 19, (8R,9aS)-8-[(5-cyclopropylpyrazin-2-yl)oxy]-2-[5-(trifluoromethyl)pyridin-2-yl]octahydro-1H-pyrrolo[1,2-a][1,4]diazepane] | 1210 nM | 36%
3 | O=C1CCN(S(=O)(=O)c2cccc(C(F)(F)F)c2)C[C@@H]2C[C@@H](Oc3ccc(C(F)(F)F)nc3)CN12 [Example 53, (8R,9aS)-2-{[3-(trifluoromethyl)phenyl]sulfonyl}-8-{[6-(trifluoromethyl)pyridin-3-yl]oxy}octahydro-5H-pyrrolo[1,2-a][1,4]diazepin-5-one] | 4020 nM | 
4 | O=C(c1ccc(F)c(Cl)c1)N1CCCN2C[C@H](Oc3cnc(C4CC4)cn3)C[C@H]2C1 [Example 16, (3-chloro-4-fluorophenyl)[(8R,9aS)-8-[(5-cyclopropylpyrazin-2-yl)oxy]hexahydro-1H-pyrrolo[1,2-a][1,4]diazepin-2(3H)-yl]methanone] | 2300 nM | 
5 | O=C(c1cccc(C(F)(F)F)c1F)N1CCCN2C[C@H](Oc3cnc(C4CC4)cn3)C[C@H]2C1 [Example 10, [(8R,9aS)-8-[(5-cyclopropylpyrazin-2-yl)oxy]hexahydro-1H-pyrrolo[1,2-a][1,4]diazepin-2(3H)-yl][2-fluoro-3-(trifluoromethyl)phenyl]methanone] | 920 nM | 
6 | O=C1[C@@H]2C[C@@H](Oc3cnc(C4CC4)cn3)CN2CCCN1Cc1ccc(C(F)(F)F)cc1 [Example 23, (8R,9aS)-8-[(5-cyclopropylpyrazin-2-yl)oxy]-2-[4-(trifluoromethyl)benzyl]octahydro-1H-pyrrolo[1,2-a][1,4]diazepin-1-one] | 980 nM | 

The next lines start with results.

Row | IC50 [1] | Compound | % MPE [2]
7 | 2520 nM | O=C1CCN(c2ccc(C(F)(F)F)cn2)C[C@@H]2C[C@@H](Oc3cnc(C4CC4)cn3)CN12 [Example 47, (8R,9aS)-8-[(5-cyclopropylpyrazin-2-yl)oxy]-2-[5-(trifluoromethyl)pyridin-2-yl]octahydro-5H-pyrrolo[1,2-a][1,4]diazepin-5-one] | 73%
8 | 880 nM | O=C(c1ccc(C(F)(F)F)cc1)N1CCCN2C[C@H](Oc3cnc(C4CC4)cn3)C[C@H]2C1 [Example 13, [(8R,9aS)-8-[(5-cyclopropylpyrazin-2-yl)oxy]hexahydro-1H-pyrrolo[1,2-a][1,4]diazepin-2(3H)-yl][4-(trifluoromethyl)phenyl]methanone] | 40%
9 | 920 nM | O=C1CCN(Cc2cccc(C(F)(F)F)c2)C[C@@H]2C[C@@H](Oc3cnc(C4CC4)cn3)CN12 [Example 42, (8R,9aS)-8-[(5-cyclopropylpyrazin-2-yl)oxy]-2-[3-(trifluoromethyl)benzyl]octahydro-5H-pyrrolo[1,2-a][1,4]diazepin-5-one] | 27%
10 | 1720 nM | O=C(c1cccc(C(F)(F)F)c1)N1CCC(=O)N2C[C@H](Oc3cnc(C4CC4)cn3)C[C@H]2C1 [Example 32, (8R,9aS)-8-[(5-cyclopropylpyrazin-2-yl)oxy]-2-[3-(trifluoromethyl)benzoyl]octahydro-5H-pyrrolo[1,2-a][1,4]diazepin-5-one] | 46%
11 | 1660 nM | O=C(c1cccc(C(F)(F)F)c1)N1CCCN2C[C@H](Oc3cnc(C4CC4)cn3)C[C@H]2C1 [Example 7, [(8R,9aS)-8-[(5-cyclopropylpyrazin-2-yl)oxy]hexahydro-1H-pyrrolo[1,2-a][1,4]diazepin-2(3H)-yl][3-(trifluoromethyl)phenyl]methanone] | 44%
12 | 7350 nM | O=C1CCN(c2cnc(C3CC3)cn2)C[C@@H]2C[C@@H](Oc3ccc(C(F)(F)F)cn3)CN12 [Example 51, (8R,9aS)-2-(5-cyclopropylpyrazin-2-yl)-8-{[5-(trifluoromethyl)pyridin-2-yl]oxy}octahydro-5H-pyrrolo[1,2-a][1,4]diazepin-5-one] | 
13 | 1030 nM | O=C(c1ccc(C(F)(F)F)c(F)c1)N1CCC(=O)N2C[C@H](Oc3cnc(C4CC4)cn3)C[C@H]2C1 [Example 35, (8R,9aS)-8-[(5-cyclopropylpyrazin-2-yl)oxy]-2-[3-fluoro-4-(trifluoromethyl)benzoyl]octahydro-5H-pyrrolo[1,2-a][1,4]diazepin-5-one] | 

From patent publication US9382258B2, “Agents for treating pain and uses thereof” (AbbVie Inc., priority 2012, dated 2016)
